From patent US10087188B2, “Benzamide imidazopyrazine Btk inhibitors” (MERCK SHARP & DOHME CORP., priority 2014, dated 2018)
pIC50: −log10 of the molar value. Where two headings read alike, the source gives them in different places.

Tests used:
HeLa cells = assay: [3H] Adenosine uptake assay; type: cell-based; conditions: accumulation of tritiated adenosine into HeLa cells, compound concentration range 10 μM to 0.032 nM, read-out: ADU inhibition IC50 (adenosine uptake inhibition potency)
In short: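 Accumulation of tritiated adenosine in adherent HeLa cells, detected by scintillant-plate coincidence counting, gives IC50 via 4-parameter robust fit. Compound (constant 0.25% DMSO) applied 30 min ahead, then 60 min radiolabel exposure (added from 500 nM solution), ambient conditions, HBSS with 5% FBS.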

[1] = biological target: BTK enzyme (recombinant full-length BTK, hBTK) (Homo sapiens (Human), UniProt Q06187); assay: Btk enzyme activity assay, LANCE TR-FRET; type: biochemical; conditions: 50 pM hBTK, 2 μM biotin-A5-peptide, 25 μM ATP; 60 minute compound & enzyme incubation; read-out: BTK binding IC50
Sequence of BTK enzyme (recombinant full-length BTK, hBTK) (Q06187 whole entry): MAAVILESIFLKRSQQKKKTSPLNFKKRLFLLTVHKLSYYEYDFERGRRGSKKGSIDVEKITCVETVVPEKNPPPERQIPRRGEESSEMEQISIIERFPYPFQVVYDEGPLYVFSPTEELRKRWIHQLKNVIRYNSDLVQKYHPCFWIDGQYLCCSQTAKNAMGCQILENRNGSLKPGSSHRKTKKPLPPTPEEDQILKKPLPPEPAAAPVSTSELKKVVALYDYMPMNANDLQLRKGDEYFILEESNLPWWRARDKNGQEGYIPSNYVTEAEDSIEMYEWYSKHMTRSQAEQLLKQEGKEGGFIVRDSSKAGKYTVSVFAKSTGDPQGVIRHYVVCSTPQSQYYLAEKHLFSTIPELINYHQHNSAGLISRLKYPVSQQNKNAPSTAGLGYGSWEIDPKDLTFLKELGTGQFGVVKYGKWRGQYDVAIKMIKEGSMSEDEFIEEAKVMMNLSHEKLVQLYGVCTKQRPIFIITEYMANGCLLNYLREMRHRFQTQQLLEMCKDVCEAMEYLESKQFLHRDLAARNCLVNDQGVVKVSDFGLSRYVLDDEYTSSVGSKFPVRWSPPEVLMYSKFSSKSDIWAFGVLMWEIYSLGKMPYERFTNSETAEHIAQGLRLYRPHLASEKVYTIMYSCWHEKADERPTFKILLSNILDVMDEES
Description: Btk Enzyme Activity Assay Methods
BTK enzymatic activity was determined with the LANCE (Lanthanide Chelate Excite) TR-FRET (Time-resolved fluorescence resonance energy transfer) assay. […] After 60 minutes incubation with detection reagents, reaction plates were read on a PerkinElmer EnVision plate reader using standard TR-FRET protocol.

Structure (SMILES) | pIC50 (HeLa cells; Homo sapiens, HeLa) | pIC50 [1] | pIC50 (HeLa cells)
CC1(C)CC(c2nc(-c3ccc(C(=O)Nc4cc(C(F)(F)F)ccn4)cc3)c3c(N)nccn23)CCC1C(=O)O (centres unmarked) [Example 20, 4-(8-amino-1-(4-((4-(trifluoromethyl)pyridin-2-yl)carbamoyl)phenyl)imidazo[1,5-a]pyrazin-3-yl)-2,2-dimethylcyclohexanecarboxylic acid] | 5.29 | 8.82 | 
CC(C)[C@]1(C(=O)O)CC[C@H](c2nc(-c3ccc(C(=O)Nc4cc(C(F)(F)F)ccn4)cc3Cl)c3c(N)nccn23)C1 [Example 92, (1S,3S)-3-[8-amino-1-(2-chloro-4-{[4-(trifluoromethyl)pyridin-2-yl]carbamoyl}phenyl)imidazo[1,5-a]pyrazin-3-yl]-1-(1-methylethyl) cyclopentane-carboxylic acid] | 5.49 | 9.29 | 
Nc1nccn2c([C@@H]3CCC[C@H](C(=O)O)C3)nc(-c3ccc(C(=O)Nc4cc(C5CC5)ccn4)cc3F)c12 [Example 9, (1S,3R)-3-(8-amino-1-{4-[(4-cyclopropyl-pyridin-2-yl)carbamoyl]-2-fluorophenyl}imidazo[1,5-a]pyrazin-3-yl)cyclohexane-carboxylic acid] | 5.36 | 8.92 | 
Nc1nccn2c(C34CCC(C(=O)O)(CC3)CC4)nc(-c3ccc(C(=O)Nc4cc(C(F)(F)F)ccn4)cc3)c12 [Example 168, 4-[8-amino-1-(4-{[4-(trifluoromethyl)pyridin-2-yl]carbamoyl}phenyl)imidazo[1,5-a]pyrazin-3-yl]bicyclo[2.2.2] octane-1-carboxylic acid] | 6.51 | 9.89 | 
CC1(C(=O)O)CCC(N2CCC[C@@H](c3nc(-c4ccc(C(=O)Nc5cc(C(F)(F)F)ccn5)cc4F)c4c(N)nccn34)C2)CC1 (stereo partly drawn) [Example 182, 4-{(3R)-3-[8-amino-1-(2-fluoro-4-{[4-(trifluoromethyl)pyridin-2-yl]carbamoyl}phenyl)imidazo [1,5-a]pyrazin-3-yl]piperidin-1-yl}-1-methylcyclohexanecarboxylic acid] | 6.75 | 8.72 | 
CCOc1cc(C(=O)Nc2cc(C(F)(F)F)ccn2)ccc1-c1nc([C@@H]2C[C@H]3CC[C@@H](C2)[C@H]3C(=O)O)n2ccnc(N)c12 [Example 105, (3-exo,8-syn)-3-[8-amino-1-(2-ethoxy-4-{[4-(trifluoromethyl)pyridin-2-yl]carbamoyl}phenyl)imidazo[1,5-a]pyrazin-3-yl]bicyclo[3.2.1] octane-8-carboxylic acid] | 5.00 | 8.72 | 
CCOc1cc(C(=O)Nc2cc(C(F)(F)F)ccn2)ccc1-c1nc([C@@H]2CC[C@@H](C(=O)O)O2)n2ccnc(N)c12 [Example 116, (2S,5S)-5-[8-amino-1-(2-ethoxy-4-{[4-(trifluoromethyl)pyridin-2-yl]carbamoyl}phenyl)imidazo[1,5-a]pyrazin-3-yl]tetrahydrofuran-2-carboxylic acid] |  | 7.66 | 5.94
CCOc1cc(C(=O)Nc2cc(C(F)(F)F)ccn2)ccc1-c1nc(C2(C)CCC(C)(C(=O)O)CC2)n2ccnc(N)c12 (centres unmarked) [Example 78, 4-[8-amino-1-(2-ethoxy-4-{[4-(trifluoromethyl)pyridin-2-yl]carbamoyl}phenyl)imidazo[1,5-a]pyrazin-3-yl]-1,4-dimethylcyclohexane-carboxylic acid] | 5.29 | 8.89 | 
COc1cc(C(=O)Nc2cc(C(F)(F)F)ccn2)ccc1-c1nc([C@H]2CN(C3CCC(C)(C(=O)O)CC3)CCO2)n2ccnc(N)c12 (stereo partly drawn) [Example 180, 4-{(2R)-2-[8-amino-1-(2-methoxy-4-{[4-(trifluoromethyl)pyridin-2-yl]carbamoyl}phenyl)imidazo [1,5-a]pyrazin-3-yl]morpholin-4-yl}-1-methylcyclohexanecarboxylic acid] | 5.19 | 8.89 | 5.40
CCOc1cc(C(=O)Nc2cc(C(F)(F)F)ccn2)ccc1-c1nc(C23CCC(C(=O)O)(CC2=O)C(=O)C3)n2ccnc(N)c12 (centres unmarked) [Example 64, 4-[8-amino-1-(2-ethoxy-4-{[4-(trifluoromethyl)pyridin-2-yl]carbamoyl}phenyl)imidazo[1,5-a]pyrazin-3-yl]-2,5-dioxobicyclo[2.2.2] octane-1-carboxylic acid] | 5.00 | 8.59 | 
Nc1nccn2c([C@H]3CC[C@@H](C(=O)N4CC[C@@H](C(=O)O)C4)C3)nc(-c3ccc(C(=O)Nc4cc(C(F)(F)F)ccn4)cc3)c12 [Example 19, (3R)-1-({(1R,3S)-3-[8-amino-1-(4-{[4-(trifluoromethyl)pyridin-2-yl]carbamoyl}phenyl)imidazo[1,5-a]pyrazin-3-yl]cyclopentyl}carbonyl)pyrrolidine-3-carboxylic acid] | 5.54 | 9.21 | 
CCOc1cc(C(=O)Nc2cc(C(F)(F)F)ccn2)ccc1-c1nc(C23CCC(C(=O)O)(CC2)C2CC23)n2ccnc(N)c12 (centres unmarked) [Example 100, 5-[8-amino-1-(2-ethoxy-4-{[4-(trifluoromethyl)pyridin-2-yl]carbamoyl}phenyl)imidazo[1,5-a]pyrazin-3-yl]tricyclo[3.2.2.0~2,4~] nonane-1-carboxylic acid] | 5.33 | 9.27 | 

Next, values leading:

pIC50 (HeLa cells; Homo sapiens, HeLa) | pIC50 [1] | pIC50 (HeLa cells) | Structure (SMILES)
5.36 | 8.92 |  | CC1(C)[C@@H](C(=O)O)CC[C@@]1(C)c1nc(-c2ccc(C(=O)Nc3cc(C(F)(F)F)ccn3)cc2)c2c(N)nccn12 [Example 142, (1S,3R)-3-[8-amino-1-(4-{[4-(trifluoromethyl)pyridin-2-yl]carbamoyl}phenyl)imidazo[1,5-a]pyrazin-3-yl]-2,2,3-trimethylcyclopentane carboxylic acid]
5.00 | 8.14 |  | CC1(C)[C@H](C(=O)O)CC[C@@]1(C)c1nc(-c2ccc(C(=O)Nc3cc(C(F)(F)F)ccn3)cc2)c2c(N)nccn12 [Example 148, (1R,3R)-3-[8-amino-1-(4-{[4-(trifluoromethyl)pyridin-2-yl]carbamoyl}phenyl)imidazo[1,5-a]pyrazin-3-yl]-2,2,3-trimethylcyclopentane carboxylic acid]
5.40 | 9.54 |  | Nc1nccn2c([C@H]3CC[C@H](CC(=O)O)C3)nc(-c3ccc(C(=O)Nc4cc(C(F)(F)F)ccn4)cc3)c12 [Example 51, {(1S,3S)-3-[8-amino-1-(4-{[4-(trifluoromethyl)pyridin-2-yl]carbamoyl}phenyl)imidazo[1,5-a]pyrazin-3-yl]cyclopentyl}acetic acid]
5.29 | 8.77 |  | CC(C)(C(=O)O)C1CCC(c2nc(-c3ccc(C(=O)Nc4cc(C(F)(F)F)ccn4)cc3)c3c(N)nccn23)C1 (centres unmarked) [Example 95, 2-{3-[8-amino-1-(4-{[4-(trifluoromethyl)pyridin-2-yl]carbamoyl}phenyl)imidazo[1,5-a]pyrazin-3-yl]cyclopentyl}-2-methylpropanoic acid]
5.77 | 9.57 |  | CC1(C(=O)O)CCC(C)(c2nc(-c3ccc(C(=O)Nc4cc(C(F)(F)F)ccn4)cc3)c3c(N)nccn23)C1 (centres unmarked) [Example 21, 3-(8-amino-1-(4-((4-(trifluoromethyl)pyridin-2-yl)carbamoyl)phenyl)imidazo[1,5-a]pyrazin-3-yl)-1,3-dimethylcyclopentanecarboxylic acid]
5.17 | 8.36 |  | Nc1nccn2c([C@@H]3CCN[C@@H](C(=O)O)C3)nc(-c3ccc(C(=O)Nc4cc(C(F)(F)F)ccn4)cc3)c12 [Example 33, (2R,4R)-4-[8-amino-1-(4-{[4-(trifluoromethyl)pyridin-2-yl]carbamoyl}phenyl)imidazo[1,5-a]pyrazin-3-yl]piperidine-2-carboxylic acid]
 | 8.85 | 5.00 | CC(C)(C(=O)O)C1CCC(c2nc(-c3ccc(C(=O)Nc4cc(C(F)(F)F)ccn4)cc3)c3c(N)nccn23)C1 (centres unmarked) [Example 94, 2-{3-[8-amino-1-(4-{[4-(trifluoromethyl)pyridin-2-yl]carbamoyl}phenyl)imidazo[1,5-a]pyrazin-3-yl]cyclopentyl}-2-methylpropanoic acid]
5.13 | 7.95 |  | Nc1nccn2c(-c3ccc(C(=O)O)nc3)nc(-c3ccc(C(=O)Nc4cc(C(F)(F)F)ccn4)cc3)c12 [Example 29, 5-[8-amino-1-(4-{[4-(trifluoromethyl)pyridin-2-yl]carbamoyl}phenyl)imidazo[1,5-a]pyrazin-3-yl]pyridine-2-carboxylic acid]
5.21 | 8.77 |  | Nc1nccn2c(-c3ccc(C(=O)O)c(F)c3)nc(-c3ccc(C(=O)Nc4cc(C(F)(F)F)ccn4)cc3)c12 [Example 25, 4-[8-amino-1-(4-{[4-(trifluoromethyl)pyridin-2-yl]carbamoyl}phenyl)imidazo[1,5-a]pyrazin-3-yl]-2-fluorobenzoic acid]
5.00 | 8.09 |  | C[C@@]1(C(=O)O)CC[C@](C)(c2nc(-c3ccc(C(=O)Nc4cc(C(F)(F)F)ccn4)cc3)c3c(N)nccn23)C1 [Example 81, (1R.3S)-3-[8-amino-1-(4-{[4-(trifluoromethyl)pyridin-2-yl]carbamoyl}phenyl)imidazo[1,5-a]pyrazin-3-yl]-1,3-dimethylcyclopentane carboxylic acid]
 | 6.34 | 5.00 | CC(C)C1(C(=O)O)CCC(C)(c2nc(-c3ccc(C(=O)Nc4cc(C(F)(F)F)ccn4)cc3)c3c(N)nccn23)C1 (centres unmarked) [Example 146, 3-[8-amino-1-(4-{[4-(trifluoromethyl)pyridin-2-yl]carbamoyl}phenyl)imidazo[1,5-a]pyrazin-3-yl]-3-methyl-1-(1-methylethyl) cyclopentane-carboxylic acid]
